# What was measured:
# 5-HT6 = 5-HT6 (UniProt P50406); test: Binding to the serotoninergic receptors; conditions: purified membranes
# Description: (§1) Confirmation of the binding to the serotoninergic receptors was performed by means of the biochemical test on purified membranes from recombinant human cells that stably express the specific receptors or from animal tissues selected as described in particular for each type of serotoninergic receptor, in: Martin G. R. and Humphrey P. P. A. Neuropharmacol. 1994, 33:261; Hoyer D. Eur. J. Pharmacol. 1985, 118:1; Bonhaus DW et al. Br. J. Pharmacol. 1995, 115:622; Wolf WA et al. J. Neurochem. 1997, 69:1449; Boess F G et al. Neuropharmacol. 1997, 36:637; Mialet J et al. Br. J. Pharmacol. 2000; 129:771; Rees S et al. FEBS Lett. 1994, 355:242; Monsma F. J. et al. Mol. Pharmacol. 1993, 43:320; Roth BL et al. J. Pharmacol. Exp. Ther. 1994, 268: 1403; and Shearman L P et al. Am. J. Physiol. 1998, 275: C1621.
# (§2) Confirmation of the binding to the serotoninergic receptors was made using purified membranes from selected animal tissues or from recombinant human cells that stably express the specific receptors, as described in: Martin G. R. and Humphrey P. P. A. Neuropharmacol. 1994, 33:261; Hoyer D. Eur. J. Pharmacol. 1985, 118:1; Bonhaus DW et al. Br. J. Pharmacol. 1995, 115:622; Wolf WA et al. J. Neurochem. 1997, 69:1449; Boess FG et al. Neuropharmacol. 1997, 36:637; Mialet J et al. Br. J. Pharmacol. 2000, 129:771; Rees S et al. FEBS Lett. 1994, 355:242; Monsma F. J. et al. Mol. Pharmacol. 1993, 43:320; Roth BL et al. J. Pharmacol. Exp. Ther. 1994, 268: 1403; and Shearman LP et al. Am. J. Physiol. 1998, 275: C1621.
# 5-HT1B = molecular target: T1, 5-HT1B (Rattus norvegicus, UniProt P28564); test: Binding to the serotoninergic receptors; conditions: purified membranes
# T1 construct: purified membranes from selected animal tissues; from tissue; host or cells: animal tissue membranes; rat brain inferred from Hoyer 1985
# Description: as §1, §2
# 5-HT7 = 5-HT7 (UniProt P34969); test: Binding to the serotoninergic receptors; conditions: purified membranes
# Description: as §1, §2
# 5-HT transporter - SERT = 5-HT transporter - SERT (UniProt P31645); test: Binding to the serotoninergic receptors; conditions: purified membranes
# Description: as §1, §2
# 5-HT2C = molecular target: T2, 5-HT2C (UniProt P28335); test: Binding to the serotoninergic receptors; conditions: purified membranes
# T2 sequence (P28335 1-458): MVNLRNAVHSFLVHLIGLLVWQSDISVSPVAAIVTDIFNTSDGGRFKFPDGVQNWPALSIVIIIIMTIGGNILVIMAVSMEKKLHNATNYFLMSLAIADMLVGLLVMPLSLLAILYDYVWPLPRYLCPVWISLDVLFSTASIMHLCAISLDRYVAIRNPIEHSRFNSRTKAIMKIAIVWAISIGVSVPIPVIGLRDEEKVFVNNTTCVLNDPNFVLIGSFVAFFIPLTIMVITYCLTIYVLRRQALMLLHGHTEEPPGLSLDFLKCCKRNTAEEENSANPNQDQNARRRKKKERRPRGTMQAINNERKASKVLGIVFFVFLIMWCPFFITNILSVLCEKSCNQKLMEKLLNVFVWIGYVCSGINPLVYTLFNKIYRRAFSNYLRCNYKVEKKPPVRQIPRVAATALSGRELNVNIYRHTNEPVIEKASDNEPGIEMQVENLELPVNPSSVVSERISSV
# Description: as §1, §2
# 5-HT5A = molecular target: T3, 5-HT5A (Homo sapiens, UniProt P47898); test: Binding to the serotoninergic receptors; conditions: purified membranes
# T3 construct: expressed in transfected cells
# Description: as §1, §2
# 5-HT3 = molecular target: T4, 5-HT3 (UniProt P46098); test: Binding to the serotoninergic receptors; conditions: purified membranes
# T4 sequence (P46098 1-478): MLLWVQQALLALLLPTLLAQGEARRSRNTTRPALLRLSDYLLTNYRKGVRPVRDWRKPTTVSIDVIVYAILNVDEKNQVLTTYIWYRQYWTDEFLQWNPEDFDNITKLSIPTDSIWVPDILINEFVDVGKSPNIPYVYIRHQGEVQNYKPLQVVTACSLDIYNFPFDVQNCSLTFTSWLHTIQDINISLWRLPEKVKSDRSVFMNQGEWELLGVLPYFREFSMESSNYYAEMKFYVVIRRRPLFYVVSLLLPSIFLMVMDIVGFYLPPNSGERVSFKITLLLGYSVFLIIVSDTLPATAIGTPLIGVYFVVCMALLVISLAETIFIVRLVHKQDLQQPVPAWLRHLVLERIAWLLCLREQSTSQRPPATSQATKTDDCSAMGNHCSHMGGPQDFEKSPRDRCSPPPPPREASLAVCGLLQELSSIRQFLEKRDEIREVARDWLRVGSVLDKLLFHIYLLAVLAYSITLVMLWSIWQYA
# Description: as §1, §2
# 5-HT4 receptor = molecular target: T5, 5-HT4 receptor (Homo sapiens, UniProt Q13639); test: Binding to the serotoninergic receptors
# T5 construct: expressed in transfected cells
# Description: as §1, §2
# 5-HT1A = molecular target: T6, 5-HT1A (Homo sapiens, UniProt P08908); test: Binding to the serotoninergic receptors; conditions: purified membranes
# T6 sequence (P08908 1-422): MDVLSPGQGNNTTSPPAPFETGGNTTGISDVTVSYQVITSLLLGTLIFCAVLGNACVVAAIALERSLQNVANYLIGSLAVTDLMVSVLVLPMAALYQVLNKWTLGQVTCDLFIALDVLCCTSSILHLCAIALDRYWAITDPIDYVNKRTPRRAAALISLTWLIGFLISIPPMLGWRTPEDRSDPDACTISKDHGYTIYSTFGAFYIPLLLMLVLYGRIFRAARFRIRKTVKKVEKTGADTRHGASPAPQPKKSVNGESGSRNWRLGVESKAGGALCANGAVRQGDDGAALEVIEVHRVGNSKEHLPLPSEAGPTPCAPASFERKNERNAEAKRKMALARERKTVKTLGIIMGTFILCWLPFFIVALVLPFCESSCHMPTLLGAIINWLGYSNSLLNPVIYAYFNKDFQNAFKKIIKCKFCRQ
# Description: as §1, §2
# 5-HT2A = molecular target: T7, 5-HT2A (Homo sapiens, UniProt P28223); test: Binding to the serotoninergic receptors; conditions: purified membranes
# T7 construct: expressed in transfected cells
# Description: as §1, §2
# 5-HT2B = molecular target: T8, 5-HT2B (Homo sapiens, UniProt P41595); test: Binding to the serotoninergic receptors; conditions: purified membranes
# T8 construct: expressed in transfected cells
# Description: as §1, §2
# hERG ion channel = molecular target: T9, hERG ion channel (Homo sapiens, UniProt Q12809); test: cell-based
# T9 construct: expressed in transfected cells; host or cells: HEK-293
# Source text: Confirmation of interaction with the potassium channels was made by means of a functional cell test (patch clamp) that uses HEK-293 recombinant human cells that stably express the hERG ion channel, as described in Zhou Z. et al. Biophys. J. 1998; 74:230.
# Confirmation of interaction with the potassium channels was made by means of the patch clamp test described in Zhou Z. et al. Biophys. J. 1998; 74:230 using the recombinant human cell line HEK-293, which stably expresses the hERG ion channel.
# T9 sequence (Q12809 whole entry): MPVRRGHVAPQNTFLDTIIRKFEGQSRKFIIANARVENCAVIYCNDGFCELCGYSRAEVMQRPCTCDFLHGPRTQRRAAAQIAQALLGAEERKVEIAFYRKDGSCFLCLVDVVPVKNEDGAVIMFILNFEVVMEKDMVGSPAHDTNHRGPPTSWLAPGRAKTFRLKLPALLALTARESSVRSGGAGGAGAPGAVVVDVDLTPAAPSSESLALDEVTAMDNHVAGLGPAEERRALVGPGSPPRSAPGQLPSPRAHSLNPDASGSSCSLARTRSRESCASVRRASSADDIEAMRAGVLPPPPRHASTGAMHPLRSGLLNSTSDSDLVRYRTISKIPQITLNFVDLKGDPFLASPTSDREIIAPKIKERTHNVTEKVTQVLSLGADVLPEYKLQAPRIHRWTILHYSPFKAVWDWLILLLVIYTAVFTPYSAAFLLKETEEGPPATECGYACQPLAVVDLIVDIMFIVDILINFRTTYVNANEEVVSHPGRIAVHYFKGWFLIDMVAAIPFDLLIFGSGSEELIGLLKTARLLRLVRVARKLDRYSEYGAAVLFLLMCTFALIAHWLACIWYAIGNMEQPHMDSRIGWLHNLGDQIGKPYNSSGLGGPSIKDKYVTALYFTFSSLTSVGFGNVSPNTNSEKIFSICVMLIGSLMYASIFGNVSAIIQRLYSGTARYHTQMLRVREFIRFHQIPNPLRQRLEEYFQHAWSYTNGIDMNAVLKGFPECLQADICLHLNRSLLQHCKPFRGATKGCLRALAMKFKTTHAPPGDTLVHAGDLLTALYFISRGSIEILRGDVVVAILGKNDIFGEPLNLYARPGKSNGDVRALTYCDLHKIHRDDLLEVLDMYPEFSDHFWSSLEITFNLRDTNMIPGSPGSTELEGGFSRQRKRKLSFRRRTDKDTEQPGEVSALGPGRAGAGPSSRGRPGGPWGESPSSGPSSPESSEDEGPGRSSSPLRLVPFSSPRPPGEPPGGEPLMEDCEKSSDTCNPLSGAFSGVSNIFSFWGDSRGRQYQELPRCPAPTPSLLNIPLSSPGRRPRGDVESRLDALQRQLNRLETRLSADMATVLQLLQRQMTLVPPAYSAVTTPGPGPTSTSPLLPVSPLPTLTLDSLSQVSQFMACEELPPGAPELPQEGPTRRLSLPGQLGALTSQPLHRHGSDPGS
# T5 sequence (Q13639 1-378 isoform Q13639-5): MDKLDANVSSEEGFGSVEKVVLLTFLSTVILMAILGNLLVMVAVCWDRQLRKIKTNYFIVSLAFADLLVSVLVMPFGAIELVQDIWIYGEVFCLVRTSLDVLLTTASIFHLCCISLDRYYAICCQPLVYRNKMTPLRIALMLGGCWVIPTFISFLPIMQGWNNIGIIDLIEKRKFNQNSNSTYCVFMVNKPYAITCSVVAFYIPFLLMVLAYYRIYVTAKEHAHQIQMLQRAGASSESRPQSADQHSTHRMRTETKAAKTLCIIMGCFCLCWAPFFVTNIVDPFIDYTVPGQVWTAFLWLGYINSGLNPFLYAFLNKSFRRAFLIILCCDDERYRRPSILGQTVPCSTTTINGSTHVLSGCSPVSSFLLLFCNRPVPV
# T3 sequence (P47898 whole entry): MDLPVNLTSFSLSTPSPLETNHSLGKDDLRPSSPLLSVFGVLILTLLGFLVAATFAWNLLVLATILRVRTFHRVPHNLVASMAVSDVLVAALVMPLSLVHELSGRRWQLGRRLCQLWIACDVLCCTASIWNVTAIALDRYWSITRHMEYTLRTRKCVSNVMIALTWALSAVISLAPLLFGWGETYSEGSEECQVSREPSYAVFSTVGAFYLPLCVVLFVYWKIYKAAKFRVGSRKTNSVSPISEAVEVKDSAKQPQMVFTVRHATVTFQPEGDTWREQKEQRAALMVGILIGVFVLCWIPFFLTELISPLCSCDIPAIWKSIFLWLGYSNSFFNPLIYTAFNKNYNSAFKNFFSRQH
# T1 sequence (P28564 whole entry): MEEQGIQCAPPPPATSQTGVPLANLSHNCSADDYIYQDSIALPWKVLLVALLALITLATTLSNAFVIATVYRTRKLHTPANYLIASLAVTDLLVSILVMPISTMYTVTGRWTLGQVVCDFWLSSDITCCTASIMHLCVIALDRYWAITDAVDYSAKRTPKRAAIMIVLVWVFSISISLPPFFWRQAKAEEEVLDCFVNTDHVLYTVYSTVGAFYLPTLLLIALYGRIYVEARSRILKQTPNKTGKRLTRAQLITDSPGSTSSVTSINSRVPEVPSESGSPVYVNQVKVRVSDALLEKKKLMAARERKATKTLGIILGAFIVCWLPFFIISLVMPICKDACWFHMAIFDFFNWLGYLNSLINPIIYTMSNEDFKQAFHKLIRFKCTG
# T7 sequence (P28223 whole entry): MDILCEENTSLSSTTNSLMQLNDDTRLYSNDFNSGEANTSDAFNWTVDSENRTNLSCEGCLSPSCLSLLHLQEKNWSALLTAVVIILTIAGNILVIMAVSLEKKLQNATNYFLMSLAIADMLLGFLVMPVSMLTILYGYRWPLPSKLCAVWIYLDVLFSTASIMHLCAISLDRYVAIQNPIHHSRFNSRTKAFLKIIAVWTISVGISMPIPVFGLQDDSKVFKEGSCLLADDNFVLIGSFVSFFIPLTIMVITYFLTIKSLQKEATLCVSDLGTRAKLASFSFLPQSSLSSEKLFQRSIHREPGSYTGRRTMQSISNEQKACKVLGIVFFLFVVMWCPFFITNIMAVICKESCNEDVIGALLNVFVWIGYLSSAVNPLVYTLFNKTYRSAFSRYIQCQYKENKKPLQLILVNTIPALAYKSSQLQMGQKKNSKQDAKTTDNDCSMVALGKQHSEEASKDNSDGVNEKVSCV
# Chain of 5-HT7 (P34969 1-432 limits assumed): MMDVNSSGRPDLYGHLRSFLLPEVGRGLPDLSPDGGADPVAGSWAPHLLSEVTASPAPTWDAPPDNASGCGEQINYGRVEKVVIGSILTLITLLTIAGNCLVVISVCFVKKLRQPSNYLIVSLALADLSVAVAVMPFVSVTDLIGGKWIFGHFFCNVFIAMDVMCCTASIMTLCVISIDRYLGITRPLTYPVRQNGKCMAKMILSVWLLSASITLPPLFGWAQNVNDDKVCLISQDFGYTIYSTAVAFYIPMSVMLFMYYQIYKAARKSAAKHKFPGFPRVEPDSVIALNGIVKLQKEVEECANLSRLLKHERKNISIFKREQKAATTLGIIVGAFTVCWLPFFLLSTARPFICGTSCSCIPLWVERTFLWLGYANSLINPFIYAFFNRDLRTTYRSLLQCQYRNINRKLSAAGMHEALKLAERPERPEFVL
# T8 sequence (P41595 whole entry): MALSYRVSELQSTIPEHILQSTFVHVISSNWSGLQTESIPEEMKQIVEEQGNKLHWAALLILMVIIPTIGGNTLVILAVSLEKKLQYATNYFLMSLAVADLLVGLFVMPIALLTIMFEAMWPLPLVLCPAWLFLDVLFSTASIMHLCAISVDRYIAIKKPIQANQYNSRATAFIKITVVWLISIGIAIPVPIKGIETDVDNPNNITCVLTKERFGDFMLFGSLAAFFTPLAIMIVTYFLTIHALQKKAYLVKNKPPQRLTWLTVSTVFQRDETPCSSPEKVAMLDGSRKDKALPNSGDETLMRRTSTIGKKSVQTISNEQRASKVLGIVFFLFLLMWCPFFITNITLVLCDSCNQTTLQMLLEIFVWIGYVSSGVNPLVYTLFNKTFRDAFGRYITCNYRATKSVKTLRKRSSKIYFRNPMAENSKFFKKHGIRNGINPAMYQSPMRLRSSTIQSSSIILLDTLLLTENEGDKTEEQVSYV
smiles,measurement,setting,value
"CC(C)n1nc(C(=O)NCC2CCN(CCc3ccc(C(=O)O)cc3)CC2)c2ccccc21 [Compound 1, 4-{2-[4-({[(1-Isopropyl-1H-indazol-3-yl)carbonyl]amino}methyl)piperidin-1-yl]ethyl}benzoic acid]",IC50,5-HT6,> 10 µM
same,IC50,5-HT1B,> 10 µM
same,IC50,5-HT7,> 10 µM
same,IC50,5-HT transporter - SERT,> 10 µM
same,IC50,5-HT2C,> 10 µM
same,IC50,5-HT5A,> 10 µM
same,IC50,5-HT3,> 10 µM
same,IC50,5-HT4 receptor,0.8 nM
same,"inhibition of binding to the 5-HT4 receptor (selectivity, in words)",5-HT4 receptor; versus the other serotoninergic receptors,selective inhibition of binding to the 5-HT4 receptor
same,IC50,5-HT1A,> 10 µM
same,IC50,5-HT2A,> 10 µM
same,IC50,5-HT2B,> 10 µM
same,IC50,hERG ion channel,> 50 µM
same,inhibition at 0.01 µM,hERG ion channel; human,0%
same,inhibition at 0.1 µM,hERG ion channel; human,0%
same,inhibition at 1 µM,hERG ion channel; human,0.9%
same,inhibition at 10 µM,hERG ion channel; human,6.5%
same,inhibition at 50 µM,hERG ion channel; human,18.8%
same,melting point,,179 to 181 °C

# — patent US8455519B2, “Drug active in neuropathic pain” (Aziende Chimiche Riunite Angelini Francesco A.C.R.A.F. …, priority 2007, dated 2013)
